Experimental data reported in US20040110763A1, “Pyrazolopyridine compound and pharmaceutical use thereof” (priority 2000, published 2004).

| Compound | melting point |
| --- | --- |
| CC(C)n1nc(-c2c(-c3ccccc3)nn3ccc(OCc4ccncc4)cc23)ccc1=O [Example 19, 5-(4-Pyridinylmethoxy)-3-(3-oxo-2-isopropyl-2,3-dihydropyridazin-6-yl)-2-phenylpyrazolo[1,5-a]pyridine] | 218 to 219.5 °C |
| COc1ccn2nc(-c3ccccc3)c(-c3ccc(=O)n(C4CCN(C)CC4)n3)c2c1 [Example 122, 5-methoxy-3-[3-oxo-2-(1-methylpiperidin-4-yl)-2,3-dihydropyridazin-6-yl]-2-phenylpyrazolo[1,5-a]pyridine] | 154 to 155 °C |
| COC(=O)N1CCN(c2ccn3nc(-c4ccccc4)c(-c4ccc(=O)n(C(C)C)n4)c3c2)CC1 [Example 108, methyl 4-[3-(3-oxo-2-isopropyl-2,3-dihydropyridazin-6-yl)-2-phenylpyrazolo[1,5-a]pyridin-5-yl]-1-piperazinecarboxylate] | 206 to 207 °C |
| CC(C)NC(=O)c1ccn2nc(-c3ccccc3)c(-c3ccc(=O)n(C(C)C)n3)c2c1 [Example 95, N-Isopropyl-3-(3-oxo-2-isopropyl-2,3-dihydropyridazin-6-yl)-2-phenylpyrazolo[1,5-a]pyridine-5-carboxamide] | 230 to 232 °C |
| COc1cccn2nc(-c3ccccc3)c(-c3ccc(=O)n(C(C)C)n3)c12 [Example 194, 4-Methoxy-3-(3-oxo-2-isopropyl-2,3-dihydropyridazin-6-yl)-2-phenylpyrazolo[1,5-a]pyridine] | 185 to 186 °C |
| COc1ccn2nc(-c3ccccc3)c(-c3ccc(=O)n(C4CCOCC4)n3)c2c1 [Example 124, 5-Methoxy-3-[3-oxo-2-(tetrahydropyran-4-yl)-2,3-dihydropyridazin-6-yl]-2-phenylpyrazolo[1,5-a]pyridine] | 224 to 225 °C |
| CCOC(=O)COc1ccn2nc(-c3ccccc3)c(-c3ccc(=O)n(C(C)C)n3)c2c1 [Example 38, Ethyl {[3-(3-oxo-2-isopropyl-2,3-dihydropyridazin-6-yl)-2-phenylpyrazolo[1,5-a]pyridin-5-yl]oxy}acetate] | 193 to 194 °C |
| COc1ccn2nc(-c3ccccc3)c(-c3ccc(=O)n(C4CCOC4)n3)c2c1 (stereo not shown) [Example 118, 5-Methoxy-3-[3-oxo-2-(tetrahydrofuran-3-yl)-2,3-dihydropyridazin-6-yl]-2-phenylpyrazolo[1,5-a]pyridine] | 207 to 208 °C |
| COc1ccn2nc(-c3ccccc3)c(-c3ccc(=O)n(C4CCCN(C)C4)n3)c2c1 (stereo not shown) [Example 123, 5-Methoxy-3-[3-oxo-2-(1-methylpiperidin-3-yl)-2,3-dihydropyridazin-6-yl]-2-phenylpyrazolo[1,5-a]pyridine] | 179 to 180 °C |
| COc1ccn2nc(-c3ccccc3)c(-c3ccc(=O)n(C(C)C)n3)c2c1Br [Example 135, 4-bromo-5-methoxy-3-(3-oxo-2-isopropyl-2,3-dihydropyridazin-6-yl)-2-phenylpyrazolo[1,5-a]pyridine] | 205 to 206 °C |
| COc1ccn2nc(-c3ccc(F)cc3)c(-c3ccc(=O)n(C)n3)c2c1 [Example 130, 5-Methoxy-3-(3-oxo-2-methyl-2,3-dihydropyridazin-6-yl)-2-(4-fluorophenyl)pyrazolo[1,5-a]pyridine] | 221 to 222 °C |
| CCCCNC(=O)c1ccn2nc(-c3ccccc3)c(-c3ccc(=O)n(C(C)C)n3)c2c1 [Example 143, N-(n-Butyl)-3-(3-oxo-2-isopropyl-2,3-dihydropyridazin-6-yl)-2-phenylpyrazolo[1,5-a]pyridine-5-carboxamide] | 185 to 186 °C |
| COCCNC(=O)COc1ccn2nc(-c3ccccc3)c(-c3ccc(=O)n(C(C)C)n3)c2c1 [Example 66, N-(2-Methoxyethyl)-2-[{3-(3-oxo-2-isopropyl-2,3-dihydropyridazin-6-yl)-2-phenylpyrazolo[1,5-a]pyridin-5-yl}oxy]acetamide] | 144.5 to 145.5 °C |
| CC(C)n1nc(-c2c(-c3ccccc3)nn3ccc(NS(C)(=O)=O)cc23)ccc1=O [Example 150, 5-Methylsulfonylamino-3-(3-oxo-2-isopropyl-2,3-dihydropyridazin-6-yl)-2-phenylpyrazolo[1,5-a]pyridine] | 193 to 194 °C |
| CC(C)n1nc(-c2c(-c3ccccc3)nn3ccc(OCCN4CC4)cc23)ccc1=O | 159 to 160 °C |
| COc1ccc(Oc2ccn3nc(-c4ccccc4)c(-c4ccc(=O)n(C(C)C)n4)c3c2)nc1 [Example 47, 5-[(5-Methoxy-2-pyridinyl)oxy]-3-(3-oxo-2-isopropyl-2,3-dihydropyridazin-6-yl)-2-phenylpyrazolo[1,5-a]pyridine] | 148 to 150 °C |
| CC(C)n1nc(-c2c(-c3ccccc3)nn3ccc(OCCCN(C)C)cc23)ccc1=O [Example 15, 5-(3-Dimethylaminopropoxy)-3-(3-oxo-2-isopropyl-2,3-dihydropyridazin-6-yl)-2-phenylpyrazolo[1,5-a]pyridine] | 125 to 126 °C |

| Compound | melting point |
| --- | --- |
| CC(C)n1nc(-c2c(-c3ccccc3)nn3ccc(OCCN4CCCC4)cc23)ccc1=O [Example 17, 5-[2-(1-Pyrrolidinyl)ethoxy]-3-(3-oxo-2-isopropyl-2,3-dihydropyridazin-6-yl)-2-phenylpyrazolo[1,5-a]pyridine] | 149 to 150 °C |
| CC(C)n1nc(-c2c(-c3ccccc3)nn3ccc(C#CC(C)(C)O)cc23)ccc1=O [Example 136, 5-(3-hydroxy-3-methyl-1-butynyl)-3-(3-oxo-2-isopropyl-2,3-dihydropyridazin-6-yl)-2-phenylpyrazolo[1,5-a]pyridine] | 171 to 172 °C |
| CC(C)n1nc(-c2c(-c3ccccc3)nn3ccc(OCC(=O)NC4CCCCC4)cc23)ccc1=O [Example 63, N-Cyclohexyl-2-{[3-(3-oxo-2-isopropyl-2,3-dihydropyridazin-6-yl)-2-phenylpyrazolo[1,5-a]pyridin-5-yl]oxy}acetamide] | 170 to 171.5 °C |
| CC(C)n1nc(-c2c(-c3ccccc3)nn3ccc(C(=O)N4CCC(c5ccccc5)CC4)cc23)ccc1=O [Example 84, 5-[(4-Phenyl-1-piperidinyl)carbonyl]-3-(3-oxo-2-isopropyl-2,3-dihydropyridazin-6-yl)-2-phenylpyrazolo[1,5-a]-pyridine] | 184 to 185 °C |
| COC1CCN(c2ccn3nc(-c4ccccc4)c(-c4ccc(=O)n(C(C)C)n4)c3c2)CC1 [Example 106, 5-(4-methoxy-1-piperidinyl)-3-(3-oxo-2-isopropyl-2,3-dihydropyridazin-6-yl)-2-phenylpyrazolo[1,5-a]pyridine] | 177 to 178 °C |
| CC(C)n1nc(-c2c(-c3ccccc3)nn3ccc(Oc4ccc([N+](=O)[O-])cn4)cc23)ccc1=O [Example 48, 5-[(5-Nitro-2-pyridinyl)oxy]-3-(3-oxo-2-isopropyl-2,3-dihydropyridazin-6-yl)-2-phenylpyrazolo[1,5-a]pyridine] | 182 to 183.5 °C |
| CC(C)CCOc1ccn2nc(-c3ccccc3)c(-c3ccc(=O)n(C(C)C)n3)c2c1 [Example 22, 5-Isopentyloxy-3-(3-oxo-2-isopropyl-2,3-dihydropyridazin-6-yl)-2-phenylpyrazolo[1,5-a]pyridine] | 163 to 163.5 °C |
| CCN(CC)C(=O)c1ccn2nc(-c3ccccc3)c(-c3ccc(=O)n(C(C)C)n3)c2c1 [Example 85, N,N-Diethyl-3-(3-oxo-2-isopropyl-2,3-dihydropyridazin-6-yl)-2-phenylpyrazolo[1,5-a]pyridine-5-carboxamide] | 157 to 158 °C |
| CC(C)n1nc(-c2c(-c3ccccc3)nn3ccc(Oc4ccccc4)cc23)ccc1=O [Example 37, 5-Phenoxy-3-(3-oxo-2-isopropyl-2,3-dihydropyridazin-6-yl)-2-phenylpyrazolo[1,5-a]pyridine] | 181 to 182 °C |
| CC(C)n1nc(-c2c(-c3ccccc3)nn3ccc(C(=O)N4CCCCC4)cc23)ccc1=O [Example 89, 5-(1-Piperidinylcarbonyl)-3-(3-oxo-2-isopropyl-2,3-dihydropyridazin-6-yl)-2-phenylpyrazolo[1,5-a]pyridine] | 185 to 186 °C |
| CC(C)n1nc(-c2c(-c3ccccc3)nn3ccc(C(=O)NC(C)(C)C)cc23)ccc1=O [Example 83, N-(tert-Butyl)-3-(3-oxo-2-isopropyl-2,3-dihydropyridazin-6-yl)-2-phenylpyrazolo[1,5-a]pyridine-5-carboxamide] | 200 to 201 °C |
| CC(=O)Nc1cccc(Oc2ccn3nc(-c4ccccc4)c(-c4ccc(=O)n(C(C)C)n4)c3c2)c1 [Example 36, N-(3-{[3-(3-oxo-2-isopropyl-2,3-dihydropyridazin-6-yl)-2-phenylpyrazolo[1,5-a]pyridin-5-yl]oxy}phenyl)acetamide] | 177.5 to 178.5 °C |
| CC(C)CNC(=O)COc1ccn2nc(-c3ccccc3)c(-c3ccc(=O)n(C(C)C)n3)c2c1 [Example 45, N-Isobutyl-2-{[3-(3-oxo-2-isopropyl-2,3-dihydropyridazin-6-yl)-2-phenylpyrazolo [1,5-a]pyridin-5-yl]oxy}acetamide] | 167.5 to 168.5 °C |
| CC(C)n1nc(-c2c(-c3ccccc3)nn3ccc(OC4CCN(C(=O)N(C)C)CC4)cc23)ccc1=O [Example 56, N,N-Dimethyl-4-[{3-(3-oxo-2-isopropyl-2,3-dihydropyridazin-6-yl)-2-phenylpyrazolo[1,5-a]pyridin-5-yl}oxy]-1-piperidine carboxamide] | 164 to 166 °C |
| CC(C)n1nc(-c2c(-c3ccccc3)nn3ccc(OCCc4ccccc4)cc23)ccc1=O [Example 9, 5-Phenethyloxy-3-(3-oxo-2-isopropyl-2,3-dihydropyridazin-6-yl)-2-phenylpyrazolo[1,5-a]pyridine] | 154.5 to 155.5 °C |
| CC(C)n1nc(-c2c(-c3ccccc3)nn3ccc(OC4CCOCC4)cc23)ccc1=O [Example 46, 5-(Tetrahydropyran-4-yl)oxy-3-(3-oxo-2-isopropyl-2,3-dihydropyridazin-6-yl)-2-phenylpyrazolo[1,5-a]pyridine] | 210.5 to 211 °C |
| CC(C)Oc1ccn2nc(-c3ccccc3)c(-c3ccc(=O)n(C(C)C)n3)c2c1 [Example 10, 5-Isopropoxy-3-(3-oxo-2-isopropyl-2,3-dihydropyridazin-6-yl)-2-phenylpyrazolo[1,5-a]pyridine] | 162 to 163 °C |
